Assay results reported in patent US20220033355A1, “CRYSTAL FORM A OF 2-(2, 5-DIOXOPYRROLIDIN-1YL) ETHYL METHYL FUMARATE, PREPARATION METHOD THEREFOR AND USE THEREOF” (SHENZHEN RENTAI PHARMATECH LTD., priority 2019, published 2022).
Where a name gives a salt, the structure may show the parent alone.

Key:
Type in all cases: physicochemical
[1] = Light stability of the crystal form (XRPD comparison); settings: 25° C., 4500 Lux
Experimental: (§1) Method: Cu target Ka, voltage: 40 KV, current: 40 mA, test angle: 3-45°, scanning step: 0.02, exposure time: 0.2S, slit width of light pipe: 2 mm, Dtex detector.
(1) Light stability: the test sample is placed in an environment having a temperature of 25° C. and a light condition of 4500 Lux for 5 days and 10 days, respectively, to test the stability of the crystal form.
(1) Light stability: by referring to the same method of light stability test for crystal A, the test sample is placed in an environment having a temperature of 25° C. and a light condition of 4500 Lux for 5 days to test the stability of the crystal form, which is compared with XRPD pattern of the crystal form I on day 0.

[2] = High-temperature stability of the crystal form (XRPD comparison); settings: 60° C.
Experimental: as §1
(2) High-temperature stability: the test sample is placed at a temperature of 60° C. for 5 days and 10 days, respectively, to test the stability of the crystal form.
(2) High-temperature stability: by referring to the same method of high-temperature stability test for crystal A, the test sample is placed at a temperature of 60° C. for 5 days to test the stability of the crystal form, which is compared with XRPD pattern of the crystal form I on day 0.

[3] = High-humidity stability 2 of the crystal form (XRPD comparison); settings: 75% RH, 40° C.
Experimental: as §1
(4) High-humidity stability 2: the test sample is placed in an environment having a humidity of 75% RH and a temperature of 40° C. for 5 days and 10 days, respectively, to test the stability of the crystal form.
(4) High-humidity stability 2: by referring to the same method of high-humidity stability test 2 for crystal A, the test sample is placed in an environment having a humidity of 75% RH and a temperature of 40° C. for 5 days to test the stability of the crystal form, which are compared with XRPD pattern of the crystal form I on day 0.

[4] = High-humidity stability 1 of the crystal form (XRPD comparison); settings: 92.5% RH, 25° C.
Experimental: as §1
(3) High-humidity stability 1: the test sample is placed in an environment having a humidity of 92.5% RH and a temperature of 25° C. for 5 days and 10 days, respectively, to test the stability of the crystal form.
(3) High-humidity stability 1: by referring to the same method of high-humidity stability test 1 for crystal A, the test sample is placed in an environment having a humidity of 92.5% RH and a temperature of 25° C. for 5 days to test the stability of the crystal form, which are compared with XRPD pattern of the crystal form I on day 0.

[5] = Dynamic vapor sorption (DVS) hygroscopicity study; settings: 25° C., RH stepped up from RH 0 to RH 90% at RH 10% per step, 10 min per step, when RH 90% is completed
Experimental: Model: DVS intrinsic (SMS, British); Method: 25° C., relative humidity is stepped up at a rate of 10%, the judgment standard is change in moisture content is <0.02% over a 10-minute period. Dynamic vapor sorption (DVS) experiment are performed for the crystal form I of Example 1 and the crystal form A prepared in Example 2 to obtain DVS curves under the following conditions: the temperature is 25° C., the relative humidity (RH) is stepped up from RH 0 to RH 90% at a rate of RH 10% per step, with 10 min for each step to reach equilibrium.

[6] = 5 days, XRPD compared with day 0

Compound	light stability of the crystal form ([1]; 5 days and 10 days, XRPD)	high-temperature stability of the crystal form ([2]; 5 days and 10 days, XRPD)	high-humidity stability 2 of the crystal form ([3]; 5 days and 10 days, XRPD)	high-humidity stability 1 of the crystal form ([4]; 5 days and 10 days, XRPD)	light stability of the crystal form [1, 6]	weight increase due to moisture absorption [5] [%]	high-temperature stability of the crystal form [2, 6]	high-humidity stability 2 of the crystal form [3, 6]	high-humidity stability 1 of the crystal form [4, 6]
COC(=O)/C=C/C(=O)OCCN1C(=O)CCC1=O [crystal form A, 2-(2,5-dioxopyrrolidin-1yl)ethyl methyl fumarate]	good light stability	good high-temperature stability	good high-humidity stability	good high-humidity stability	–	–	–	–	–
COC(=O)/C=C/C(=O)OCCN1C(=O)CCC1=O [crystal form I, 2-(2,5-dioxopyrrolidin-1yl)ethyl methyl fumarate]	–	–	–	–	unstable under lights and easily transforms into crystal form A	0.642	unstable under high temperatures and easily transforms into crystal form A	unstable under high humidity and easily transforms into crystal form A	unstable under high humidity and easily transforms into crystal form A
